The assay deals with T1, human liver glycogen phosphorylase a (HLGPa) (Homo sapiens, UniProt P06737).
T1 construct: creating a full-length cDNA fused at the 5′ end to codons for methionine-glycine-alanine-histidine; 6xHis tag (leader Met-Gly-Ala-His6-Gly-Gly) (N); made in house; host or cells: E. coli (bacterial expression plasmid pTXK1007LTev)
T1 sequence (P06737 2-847 limits assumed): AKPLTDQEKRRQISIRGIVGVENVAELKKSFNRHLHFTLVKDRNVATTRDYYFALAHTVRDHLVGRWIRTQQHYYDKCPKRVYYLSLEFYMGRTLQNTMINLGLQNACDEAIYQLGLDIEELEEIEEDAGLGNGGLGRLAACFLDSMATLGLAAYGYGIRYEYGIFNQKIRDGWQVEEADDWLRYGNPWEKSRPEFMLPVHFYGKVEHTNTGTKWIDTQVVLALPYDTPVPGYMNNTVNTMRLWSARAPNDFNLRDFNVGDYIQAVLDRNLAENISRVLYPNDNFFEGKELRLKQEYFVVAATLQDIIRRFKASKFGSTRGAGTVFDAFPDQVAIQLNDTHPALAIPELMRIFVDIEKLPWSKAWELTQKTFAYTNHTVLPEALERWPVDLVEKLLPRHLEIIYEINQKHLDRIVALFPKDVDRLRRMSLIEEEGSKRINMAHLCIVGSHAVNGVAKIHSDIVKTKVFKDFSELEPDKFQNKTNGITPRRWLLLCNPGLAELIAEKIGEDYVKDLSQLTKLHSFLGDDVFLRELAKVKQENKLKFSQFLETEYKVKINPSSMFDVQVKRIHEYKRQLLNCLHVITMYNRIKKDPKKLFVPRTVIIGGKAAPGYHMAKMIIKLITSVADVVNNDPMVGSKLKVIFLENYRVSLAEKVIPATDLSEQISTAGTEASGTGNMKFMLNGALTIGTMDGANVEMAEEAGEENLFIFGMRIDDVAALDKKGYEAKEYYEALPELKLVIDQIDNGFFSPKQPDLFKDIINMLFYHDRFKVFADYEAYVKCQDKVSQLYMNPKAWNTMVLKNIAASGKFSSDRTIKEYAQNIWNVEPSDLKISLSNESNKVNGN
Description: Human liver glycogen phosphorylase a enzymatic activity assay (coupled, fluorescent resorufin readout, with and without 10 mM glucose). In kind it is biochemical. The note with it: human liver glycogen phosphorylase a enzymatic activity assay.

The values below come from patent US20070249670A1, “Glycogen Phosphorylase Inhibitor Compounds and Pharmaceutical Compositions Thereof” (SMITHKLINE BEECHAM CORPORATION, priority 2004, published 2007).

Counter-ions that a name gives are not always drawn.

One may read the IC50 as the midpoint of a concentration-inhibition curve. The low end stands for greater potency in that assay, the high end for weaker potency in that assay.

Compound `Cc1cccc(Cl)c1NC(=O)Nc1cc2ccccc2cc1C(=O)N[C@@H](CCCCN)C(=O)O` [Example 59, N-[3-({[(2-chloro-6-methylphenyl)amino]carbonyl}amino)-2-naphthoyl]-L-lysine trifluoroacetate] returned an IC50 of 2.99 µM.

Turning to `CSCC[C@H](NC(=O)c1cc2ccccc2cc1NC(=O)Nc1c(C)cccc1Cl)C(=O)O` [Example 60, N-[3-({[(2-chloro-6-methylphenyl)amino]carbonyl}amino)-2-naphthoyl]-L-methionine], 0.64 µM corresponded to half-maximal inhibition (IC50).

As for `Cc1cccc(Cl)c1NC(=O)Nc1cc2ccccc2cc1C(=O)N[C@@H](Cc1cnc[nH]1)C(=O)O` [Example 61, N-[3-({[(2-chloro-6-methylphenyl)amino]carbonyl}amino)-2-naphthoyl]-L-histidine trifluoroacetate], the midpoint of inhibition, the IC50, lay at 0.45 µM.

Turning to `Cc1cccc(Cl)c1NC(=O)Nc1cc2ccccc2cc1C(=O)N[C@@H](Cc1ccccc1)C(=O)O` [Example 62, N-[3-({[(2-chloro-6-methylphenyl)amino]carbonyl}amino)-2-naphthoyl]-L-phenylalanine], the midpoint of inhibition, the IC50, lay at 0.26 µM.

As to `Cc1cccc(Cl)c1NC(=O)Nc1cc2ccccc2cc1C(=O)N[C@@H](CCCNC(=N)N)C(=O)O` [Example 63, N-[3-({[(2-chloro-6-methylphenyl)amino]carbonyl}amino)-2-naphthoyl]-L-arginine], the IC50 was 2.73 µM.

As to `Cc1cccc(Cl)c1NC(=O)Nc1cc2ccccc2cc1C(=O)N[C@@H](Cc1ccc(O)cc1)C(=O)O` [Example 64, N-[3-({[(2-chloro-6-methylphenyl)amino]carbonyl}amino)-2-naphthoyl]-L-tyrosine], 0.45 µM corresponded to half-maximal inhibition (IC50).

`Cc1cccc(Cl)c1NC(=O)Nc1cc2ccccc2cc1C(=O)N[C@@H](Cc1c[nH]c2ccccc12)C(=O)O` [Example 65, N-[3-({[(2-chloro-6-methylphenyl)amino]carbonyl}amino)-2-naphthoyl]-L-tryptophan trifluoroacetate] yielded an IC50 of 0.27 µM.

`Cc1cccc(Cl)c1NC(=O)Nc1cc(F)c(F)cc1C(=O)N[C@@H](CC(=O)O)C(=O)O` [Example 66, N-[2-({[(2-chloro-6-methylphenyl)amino]carbonyl}amino)-4,5-difluorobenzoyl]-L-aspartic acid] yielded an IC50 of 7.16 µM.

Compound `COc1cc(NC(=O)Nc2c(C)cccc2Cl)c(C(=O)N[C@@H](CC(=O)O)C(=O)O)cc1OC` [Example 67, N-[2-({[(2-chloro-6-methylphenyl)amino]carbonyl}amino)-4,5-dimethoxybenzoyl]-L-aspartic acid] showed a concentration for half-maximal inhibition (IC50) of 19.8 µM.

In turn, `Cc1cccc(Cl)c1NC(=O)Nc1cc(F)c(F)cc1C(=O)N[C@@H](CC(C)C)C(=O)O` [Example 68, N-[2-({[(2-chloro-6-methylphenyl)amino]carbonyl}amino)-4,5-difluorobenzoyl]-L-leucine] displayed an IC50 of 7.54 µM.

Take `COc1cc(NC(=O)Nc2c(C)cccc2Cl)c(C(=O)N[C@@H](CC(C)C)C(=O)O)cc1OC` [Example 69, N-[2-({[(2-chloro-6-methylphenyl)amino]carbonyl}amino)-4,5-dimethoxybenzoyl]-L-leucine]: half-maximal inhibition (IC50) was put at 13.8 µM.

As for `CC[C@H](C)[C@H](NC(=O)c1cc(F)c(F)cc1NC(=O)Nc1c(C)cccc1Cl)C(=O)O` [Example 70, N-[2-({[(2-chloro-6-methylphenyl)amino]carbonyl}amino)-4,5-difluorobenzoyl]-L-isoleucine], the IC50 was 5.97 µM.

The compound `CC[C@H](C)[C@H](NC(=O)c1cc(OC)c(OC)cc1NC(=O)Nc1c(C)cccc1Cl)C(=O)O` [Example 71, N-[2-({[(2-chloro-6-methylphenyl)amino]carbonyl}amino)-4,5-dimethoxybenzoyl]-L-isoleucine] displayed an IC50 of 22.3 µM.

As for `Cc1cccc(Cl)c1NC(=O)Nc1cc(F)c(F)cc1C(=O)N[C@@H](Cc1ccccc1)C(=O)O` [Example 72, N-[2-({[(2-chloro-6-methylphenyl)amino]carbonyl}amino)-4,5-difluorobenzoyl]-L-phenylalanine], the IC50 stood at 10.9 µM.

`COc1cc(NC(=O)Nc2c(C)cccc2Cl)c(C(=O)N[C@@H](Cc2ccccc2)C(=O)O)cc1OC` [Example 73, N-[2-({[(2-chloro-6-methylphenyl)amino]carbonyl}amino)-4,5-dimethoxybenzoyl]-L-phenylalanine] gave an IC50 of 11.6 µM.

Consider `Cc1cccc(Cl)c1NC(=O)Nc1cc(F)c(F)cc1C(=O)N[C@@H](Cc1c[nH]c2ccccc12)C(=O)O` [Example 74, N-[2-({[(2-chloro-6-methylphenyl)amino]carbonyl}amino)-4,5-difluorobenzoyl]-L-tryptophan trifluoroacetate], for which the half-inhibitory concentration (IC50) was 6.58 µM.

`COc1cc(NC(=O)Nc2c(C)cccc2Cl)c(C(=O)N[C@@H](Cc2c[nH]c3ccccc23)C(=O)O)cc1OC` [Example 75, N-[2-({[(2-chloro-6-methylphenyl)amino]carbonyl}amino)-4,5-dimethoxybenzoyl]-L-tryptophan trifluoroacetate] came in with a 50% inhibitory concentration (IC50) of 0.76 µM.

With `O=C(Nc1ccccc1Cl)Nc1cc(F)c(F)cc1C(=O)N[C@@H](Cc1c[nH]c2ccccc12)C(=O)O` [Example 76, N-[2-({[(2-chlorophenyl)amino]carbonyl}amino)-4,5-difluorobenzoyl]-L-tryptophan trifluoroacetate], the concentration for half-maximal inhibition (IC50) stood at 3.74 µM.

The compound `COc1cc(NC(=O)Nc2ccccc2Cl)c(C(=O)N[C@@H](Cc2c[nH]c3ccccc23)C(=O)O)cc1OC` [Example 77, N-[2-({[(2-chlorophenyl)amino]carbonyl}amino)-4,5-dimethoxybenzoyl]-L-tryptophan trifluoroacetate] came in with an IC50 of 9.05 µM.

Take `Cc1cccc(C)c1NC(=O)Nc1cc(F)c(F)cc1C(=O)N[C@@H](CC(=O)O)C(=O)O` [Example 78, N-[2-({[(2,6-dimethylphenyl)amino]carbonyl}amino)-4,5-difluorobenzoyl]-L-aspartic acid]: the 50% inhibitory concentration (IC50) was 9.11 µM.

As for `Cc1cccc(C)c1NC(=O)Nc1cc(F)c(F)cc1C(=O)N[C@@H](CC(C)C)C(=O)O` [Example 79, N-[2-({[(2,6-dimethylphenyl)amino]carbonyl}amino)-4,5-difluorobenzoyl]-L-leucine], inhibition was half-maximal at 18.7 µM (IC50).

`CC[C@H](C)[C@H](NC(=O)c1cc(F)c(F)cc1NC(=O)Nc1c(C)cccc1C)C(=O)O` [Example 80, N-[2-({[(2,6-dimethylphenyl)amino]carbonyl}amino)-4,5-difluorobenzoyl]-L-isoleucine]: the IC50 came to 8.73 µM.

Compound `Cc1cccc(C)c1NC(=O)Nc1cc(F)c(F)cc1C(=O)N[C@@H](Cc1ccccc1)C(=O)O` [Example 81, N-[2-({[(2,6-dimethylphenyl)amino]carbonyl}amino)-4,5-difluorobenzoyl]-L-phenylalanine] gave a concentration for half-maximal inhibition (IC50) of 14.7 µM.

On to `COc1cc(NC(=O)Nc2c(C)cccc2C)c(C(=O)N[C@@H](Cc2c[nH]c3ccccc23)C(=O)O)cc1OC` [Example 82, N-[2-({[(2,6-dimethylphenyl)amino]carbonyl}amino)-4,5-dimethoxybenzoyl]-L-tryptophan trifluoroacetate], for which the IC50 came out at 9.41 µM.

With `CCc1cccc(CC)c1NC(=O)Nc1ccccc1C(=O)N[C@@H](CC(=O)O)C(=O)O` [Example 83, N-[2-({[(2,6-diethylphenyl)amino]carbonyl}amino)benzoyl]-L-aspartic acid], inhibition was half-maximal at 34.1 µM (IC50).
